Earlier results as cited in patent publication US20180168149A1, “INSECTICIDAL COMPOSITIONS” (HOMS, LLC, priority 2015, published 2018).

System: male rats

## C=C(C)[C@H]1CC=C(C)CC1 [d-limonene]
  tumors on chronic exposure: significant incidence of renal tubular tumors
